Reference: ChEMBL document CHEMBL3098026, “Synthesis and SAR of novel isoxazoles as potent c-jun N-terminal kinase (JNK) inhibitors” (Bioorg Med Chem Lett, 2014)

Tests used:
[1] = Stability in human microsomes; assay type: ADME, Microsome
[2] = Cmax in Sprague-Dawley rat at 2 mg/kg, po; assay type: ADME, organism-based; design: dose 2 mg/kg, route oral; settings: in vivo
[3] = Half life in Sprague-Dawley rat at 1 mg/kg, iv and 2 mg/kg, po; assay type: ADME, organism-based; settings: in vivo
[4] = Plasma clearance in Sprague-Dawley rat at 1 mg/kg, iv and 2 mg/kg, po; assay type: ADME, organism-based
Rattus norvegicus = experiment: Oral bioavailability in Sprague-Dawley rat at 2 mg/kg; assay type: ADME, organism-based; settings: in vivo
[5] = Volume of distribution in Sprague-Dawley rat at 1 mg/kg, iv and 2 mg/kg, po; assay type: ADME, organism-based; settings: in vivo
[6] = AUC in Sprague-Dawley rat at 2 mg/kg, po; assay type: ADME, organism-based; design: dose 2 mg/kg, route oral; settings: plasma

Structure (SMILES) | Stability [1] | Cmax [2] [nM] | half-life [3] [h] | clearance [4] [mL/min/kg] | F (Rattus norvegicus) [%] | Vd [5] [L/kg] | AUC [6] [µM·h]
Oc1onc(-c2ccnc(Nc3ccc(N4CCOCC4)cc3)c2)c1-c1ccc(F)cc1 | Unstable |  |  |  |  |  | 
Cc1ncn(-c2ccc(Nc3cc(-c4nocc4-c4cnn(C)c4)ccn3)cc2)n1 |  | 1500 | 1.5 | 6 | 37 | 0.4 | 5
Cc1ncn(-c2ccc(Nc3cc(-c4nocc4-c4cn[nH]c4C)ccn3)cc2)n1 |  | 300 | 1.8 | 13 | 12 | 0.4 | 0.7
